According to patent US11529323B2 (priority 2017, dated 2022):

Experiments:
[1] = tested on: C-26 colon adenocarcinoma cachexia model; test: Combined androgen and AR-42 study (Study 3), C-26 model; format: in vivo, mouse; details: Study 3
Description: These studies were performed as previously described (Tseng Y C, et al. J Natl Cancer Inst. 2015 107(12):djv274) with modifications. Tumors were established in the right flank by subcutaneous injection of C-26 cells (0.5×10^6 cells in 0.1 mL). […] TFM-4AS-1 (a potent experimental SARM), dihydrotestosterone (DHT) and vehicles were administered by subcutaneous injection.
Six days after cell injection, animals with palpable tumors were treated once daily for 13 days with vehicles for AR-42 and TFM-4AS-1/DHT (n=9), AR-42 (10 mg/kg; TFM-4AS-1/DHT vehicle; n=10), TFM-4AS-1 (10 mg/kg; AR-42 vehicle; n=9), DHT (3 mg/kg; AR-42 vehicle; n=10), the combination of AR-42 and TFM-4AS-1 (10 mg/kg each; n=9), or the combination of AR-42 (10 mg/kg) and DHT (3 mg/kg)(n=10). Grip strength was measured and tissues collected as in the previous studies.
Forelimb grip strength was measured using Bio-GS3 Grip Strength Test Meter (Forceleader DBA Bioseb, Pinellas Park, Fla.). Each mouse was held by the base of its tail and lowered over the apparatus until its forepaws grasped the metal pull bar. The mouse was then gently pulled horizontally in a straight line away from the grip strength meter until the mouse released the bar. The force applied to the bar at the moment of release was recorded as the peak force. Five measurements were taken from each mouse, the average of which was designated as the mouse's grip strength.

[2] = Jones et al. 2010; cited from earlier work

Q: Which tumor growth ([1]; DHT alone 3 mg/kg, after 8 days of administration) does the source give for `C[C@]12CCC(=O)C[C@@H]1CC[C@@H]1[C@@H]2CC[C@]2(C)[C@@H](O)CC[C@@H]12` [DHT, dihydrotestosterone] here?
A: tumor growth was significantly suppressed

Q: Which “effect on orchiectomy- and glucocorticoid-mediated wasting” value [2] does the source give for `C[C@](O)(COc1ccc(Cl)c(F)c1)C(=O)Nc1ccc(C#N)c(C(F)(F)F)c1` [S-23] here?
A: reversed orchiectomy- and glucocorticoid-mediated wasting

Q: Which “effect on body weight” value ([1]; TFM-4AS-1 10 mg/kg monotherapy) does the source give for `CN1C(=O)C=C[C@]2(C)[C@H]3CC[C@]4(C)[C@@H](C(=O)Nc5ccccc5C(F)(F)F)CC[C@H]4[C@@H]3CC[C@@H]12` [TFM-4AS-1] here?
A: did not spare body weight

Q: And the “effect on mass of gastrocnemius or quadriceps” value ([1]; monotherapy (TFM-4AS-1 10 mg/kg; AR-42 10 mg/kg))?
A: did not spare
